# Test results: patent US20120122982A1, “USE OF PUFAS TO TREAT NERVE DAMAGE” (Equateq Limited, priority 2009, published 2012)
# Columns and labels:
# Format in all cases: in vivo, rat
# diabetic rats [1] = experiment: Sciatic nerve endoneurial blood flow by microelectrode polarography and hydrogen clearance; settings: 1 mg/kg/day in food for 2 weeks, flow halved in diabetic rats
# Description: Diabetes was induced in mature (19 week old) male Sprague-Dawley by streptozotocin injection (40-45 mg/kg i.p.). The diabetic state was monitored weekly using commercially available test strips for blood (tail vein) and urine glucose levels. Body weight would also be monitored daily. The criteria for the diabetic state are; blood glucose>19.9 mM, glycosuria, and no evidence of body weight gain (which would indicate partial recovery of beta cell function). At the end of the experiments, blood samples would be taken for the determination of plasma glucose. […]
# Sciatic nerve endoneurial blood flows in non-diabetic control rats, diabetic rats treated with vehicle alone and diabetic rats treated with 13-HODE were estimated by microelectrode polarography and hydrogen clearance, using the methods described in Day T J, Lagerlund T D, Low P A (1989) Analysis of H2 clearance curves used to measure blood flow in rat sciatic nerve, J Physiol 414:35-54, and Cameron N E, Cotter M A, Low P A (1991) Nerve blood flow in early experimental diabetes in rats: relation to conduction deficits, Am J Physiol 261:E1-E8. […] The level of anaesthesia was monitored by observing any reaction of blood pressure to manipulation, and supplementary thiobutabarbital anaesthetic given as necessary. […]
# diabetic rats [2] = experiment: Sensory nerve conduction velocity (NCV) in saphenous nerve of streptozotocin-diabetic rats; settings: 2-week daily oral treatment after 6 weeks untreated diabetes, diabetic around 50 m/s, non-diabetic around 60 m/s
# Description: (§1) Male Sprague-Dawley rats (Aberdeen University colony) were used, which were 19 weeks old at the start of the study. Diabetes was induced by intraperitoneal streptozotocin injection at 40-45 mg kg^−1 freshly dissolved in sterile 0.9% saline solution. This was verified 24 hours later by estimating hyperglycaemia (blood glucose>19.9 mM) and glycosuria, and diabetic state was monitored weekly using test strips for blood (tail vein) and urine glucose levels. Body weight was also monitored daily to check against body weight gain (which would indicate partial recovery of beta cell function and exclude diabetic status).
# (§2) After 6 weeks of untreated diabetes, four experimental groups (n=6 per group) were treated for a 2-week period, with a daily oral administration of 13-HODE at a range of dosages (13-Hydoxydienoic acid, Equateq, Isle of Lewis, UK), added to the food and dispersed in a sunflower oil vehicle. Experimental groups were treated with doses of a representative compound of the invention,13-HODE, ranging from 0.01 mg/kg/day to 100 mg/kg/day.
# Rats were anaesthetized with thiobutabarbital sodium (50-100 mg kg^−1 i.p.). […]
# An experiment was carried out in a similar fashion to Example 1 except that Sensory NCV was measured in the saphenous nerve between groin and mid calf. Direct nerve evoked potentials were recorded at the ankle using a unipolar platinum hook electrode. […]
# diabetic rats [3] = experiment: Corpus cavernosum pressure responses to cavernous nerve stimulation
# Description: (§3) Diabetes was induced in mature (19 week old) male Sprague-Dawley by streptozotocin injection (40-45 mg/kg i.p.). The diabetic state was monitored weekly using commercially available test strips for blood (tail vein) and urine glucose levels. Body weight would also be monitored daily. The criteria for the diabetic state are; blood glucose>19.9 mM, glycosuria, and no evidence of body weight gain (which would indicate partial recovery of beta cell function). At the end of the experiments, blood samples would be taken for the determination of plasma glucose.
# (§4) Experiments were designed with a reversal (intervention) paradigm: diabetic rats were untreated for 6 weeks to allow the development of neurovascular dysfunction. They were then treated over the next 2 weeks with a dose of 1 mg/kg/day of a representative compound of the invention, 13-HODE, given as a dietary supplement dispersed in the food with a sunflower oil vehicle (50 ml/2.5 kg food). Groups of nondiabetic control rats and diabetic rats treated with vehicle alone were also studied. […]
# Non-diabetic control rats, diabetic rats treated with vehicle alone and diabetic rats treated with 13-HODE were anaesthetized with thiobutabarbital (50-100 mg kg^−1 i.p.). […] Cavernosal pressure responses were recorded in response to 60 s periods of suprathreshold (3-5 mA) nerve stimulation at frequencies in the range 1-32 Hz (stimulus duration 1.5-2 ms). […]
# diabetic rats [4] = experiment: Tactile allodynia, electronic von Freys hair apparatus; settings: 1 mg/kg/day in food for 2 weeks
# Description: as §3, §4
# Tactile allodynia in non-diabetic control rats, diabetic rats treated with vehicle alone and diabetic rats treated with 13-HODE was monitored using an electronic von Freys hair apparatus. […] Allodynia was measured for each foot on one day.
# diabetic rats [5] = experiment: Motor nerve conduction velocity (NCV) in sciatic nerve of streptozotocin-diabetic rats; settings: for motor NCV: 2-week daily oral treatment after 6 weeks untreated diabetes, diabetic around 50 m/s, non-diabetic around 60 m/s; for ED50: Rattus norvegicus, calculated from dose response curves of FIG. 13; for times more potent than GLA in restoring motor nerve conduction velocity: from ED50 values
# Description: as §1, §2
# Rats were anaesthetized with thiobutabarbital sodium (50-100 mg kg^−1 i.p.). The trachea was cannulated for artificial respiration.
# The sciatic nerve was exposed between the sciatic notch and knee, and Motor nerve conduction velocity (NCV) was measured using concentric bipolar electrodes, as described in Cameron N E, et al (1989) Q J Exp Physiol 74:917-926 and Cameron N E, et al (1991) Diabetes 40:532-539, in the nerve branch to tibialis anterior muscle, which is representative of the whole sciatic nerve in terms of susceptibility to diabetes and treatment effects. Evoked electromyographic (EMG) potentials from each stimulating site were averaged 8 times, and Motor NCV was calculated by dividing the distance between stimulating electrodes by the average latency difference between the onset of EMG potentials evoked from the 2 sites. Nerve temperatures were monitored by thermocouple probes, and maintained in the range 36-38° C. by radiant heat. Body temperature was also maintained around 37° C. using a heated blanket.
# Experiments were carried out in similar fashions to Examples 1 and 2 except that 15-HETrE was used instead of 13-HODE.
# An experiment was carried out in accordance with the method of Example 1 to determine the effect of GLA, 13-HODE and 15-HETrE on Motor NCV in diabetic rats.
# diabetic rats [6] = experiment: Major pelvic ganglion blood flow by hydrogen clearance; settings: 1 mg/kg/day in food for 2 weeks
# diabetic rats [7] = experiment: Randall-Sellito test, mechanical pressure thresholds; settings: 1 mg/kg/day in food for 2 weeks
# Description: as §3
# Experiments were designed with a reversal (intervention) paradigm: diabetic rats were untreated for 6 weeks to allow the development of neurovascular dysfunction. They were then treated over the next 2 weeks with a dose of 1 mg/kg/day of a representative compound of the invention, 13-HODE, given as a dietary supplement dispersed in the food with a sunflower oil vehicle (50 ml/2.5 kg food). Groups of nondiabetic control rats and diabetic rats treated with vehicle alone were also studied.
# Groups of non-diabetic control rats, diabetic rats treated with vehicle alone and diabetic rats treated with 13-HODE were obtained as in Example 4.
# Before final experiments, nociceptive thresholds for mechanical stimulation were measured by the Randall-Sellito test . […]
# diabetic rats [8] = experiment: Hargreaves plantar test, withdrawal latency to noxious thermal stimulation of the foot; settings: 1 mg/kg/day in food for 2 weeks
# Description: as §3
# Experiments were designed with a reversal (intervention) paradigm: diabetic rats were untreated for 6 weeks to allow the development of neurovascular dysfunction. They were then treated over the next 2 weeks with a dose of 1 mg/kg/day of a representative compound of the invention, 13-HODE, given as a dietary supplement dispersed in the food with a sunflower oil vehicle (50 ml/2.5 kg food). […]
# Before final experiments, nociceptive latencies for withdrawal reflexes to noxious thermal stimulation of the foot were estimated by the Hargreaves plantar test using commercially available equipment (Ugo-Basile, Comerio, Italy). […] After 30 min acclimatization, a constant power infrared stimulus was focused through the glass base onto the sole of the foot and the latency for reflex foot withdrawal automatically recorded via a photoelectric monitor. […]
Compound,sciatic nerve endoneurial blood flow (diabetic rats [1]),sensory NCV (diabetic rats [2]),"whole-frequency response curve versus nondiabetic controls (diabetic rats [3]; 1 mg/kg/day for 2 weeks, 2-way ANOVA p<0.01)","cavernosal pressure responses to nerve stimulation: diabetic deficit (diabetic rats [3]; 1 mg/kg/day in food for 2 weeks, stimulation 1-32 Hz)",tactile allodynia (threshold for foot withdrawal to tactile stimulation) (diabetic rats [4]),motor NCV (diabetic rats [5]),ED50 (diabetic rats [5]) [mg/kg],times more potent than GLA in restoring motor nerve conduction velocity (diabetic rats [5]),major pelvic ganglion blood flow (diabetic rats [6]),sensitivity to mechanical deep pressure (foot withdrawal) (diabetic rats [7]),latency of response to thermal stimuli (increased sensitivity to noxious heat) (diabetic rats [8])
"CCCCCC(O)/C=C/C=C\CCCCCCCC(=O)O (stereo not shown) [13-HODE, 13-Hydroxyoctadeca-9Z,11E-dienoic acid]",completely restored,around 60 m/s,significantly greater pressure response,completely corrected,almost completely reversed,around 60 m/s,0.057,approximately 3000 times,restored to within the nondiabetic range,small but statistically significant improvement,completely corrected
"CCCCCC(O)/C=C/C=C\C/C=C\CCCCCCC(=O)O (stereo not shown) [15-HETrE, 15-Hydroxy-eicosa-8Z,11Z,13E-trienoic acid]",,around 60 m/s,,,,around 60 m/s,0.252,approximately 500 times,,,
"CCCCC/C=C\C/C=C\C/C=C\CCCCC(=O)O [GLA, gamma-linolenic acid, reference compound]",,,,,,,165,,,,
